Laboratory results taken from article PMC5905287, “Synthesis and in vitro biochemical evaluation of oxime bond-linked daunorubicin–GnRH-III conjugates developed for targeted drug delivery” (Beilstein Journal of Organic Chemistry, 2018).
pIC50: −log10 of the molar value. Like-named read-outs stand apart in the source and are kept apart here. Non-standard residues stand in square brackets, D forms with d. Residues, ends and D or L forms follow the SMILES beside them. *: point of attachment. Daunorubicin(13-NOCH2CO) = COc1cccc2c1C(=O)c1c(O)c3c(c(O)c1C2=O)C[C@@](O)(C(C)=NOCC(=O)*)C[C@@H]3O[C@H]1C[C@H](N)[C@H](O)[C@H](C)O1; pGlu = O=C1CC[C@@H](C(=O)O)N1; Butyryl = CCCC(=O)*

Key:
GnRH-receptor = tested on: GnRH-receptor; design: method as in PMID 10647698, PMID 20859992; details: 1 pM to 1 µM; ref [51]–[52]; cited from earlier work
[1] = Degradation in rat liver lysosomal homogenate (LC-MS); assay type: in vitro ADME; details: rat liver lysosomal homogenate, 37 °C, pH 5
Protocol: In order to gain insight into the cellular release of the drug, the degradation of the Dau–GnRH-III derivatives 1–6, K1 and K2 was determined in the presence of rat liver lysosomal homogenate at 37 °C. […] However, the degradation level and the cleavage sites within the GnRH-III sequence differ considerably depending on the incorporated amino acids, whereby the hydrolyses of the C-terminus (H-Gly-NH2 and H-Pro-Gly-NH2) occurred first in all eight GnRH-III derivatives. Due to the high chemical and enzymatic stability of the oxime bond, no free Dau was detected by LC–MS. In accordance with our previous results, the digestion of the two peptides containing L-Asp in position 6 (K1, K2) provided the smallest Dau-containing metabolite (H-Lys(Dau=Aoa)-OH, m/z 729.36 [M + H]^+). This metabolite could already be detected after 1 hour of incubation in case of K2 and after 2 hours in case of K1. […] It might be assumed that D-Trp of GnRH-III–[^4Lys(Bu), ^6D-Tpr, ^8Lys(Dau=Aoa)] (6) is also accepted at the cleavage site, but due to the prior hydrolysis of the ^7Trp-^8Lys(Dau=Aoa)-bond an evidential fragment has not been detected. A reason for these diversities might be the subsite specificities of the lysosomal proteases. For instance, lysosomal cysteine proteases also known as cathepsins show a broad substrate specificity. […] For instance, the analyzed fragments of the ^6L-Asp derivatives gave clear hints for the presence of endopeptidases, while the digestion of the ^6D-Aaa compounds 1–3 gave only fragments which evidence the activity of exomono- and/or dipeptidases. Moreover, the obtained results for the bioconjugates that contain ^4Lys(Bu) (K2, 4–6) instead of serine indicate a proteolytic cleavage by lysosomal endopeptidases, which might be of great importance for the release of the smallest Dau-containing metabolite.
The rat liver lysosomal homogenate was prepared as previously described. The protein concentration was determined by Qubit Protein Assay Kit according to the manufacturer’s protocol (ThermoFisher Scientific, Waltham, MA, USA). The bioconjugates were dissolved in ddH2O to a concentration of 5 µg/µL. The reaction was carried out in 0.2 M NaOAc buffer (pH 5), with an identical concentration of bioconjugate and rat liver lysosomal homogenate (0.25 µg/µL). The reaction mixtures were incubated at 37 °C and aliquots of 15 µL were taken at 5 min, 1 h, 2 h, 4 h, 8 h and 24 h and quenched with 2 µL of acetic acid. The analysis of the samples was performed by LC–MS.

[2] = tested on: MCF-7 human breast cancer cell line; experiment: In vitro cytostatic effect, alamarBlue assay, MCF-7; assay type: cell-based; details: MCF-7, 10 µM
From the text: (§1) Cell lines often function as the first model system of choice to study biological processes or to test the efficiency of drugs or drug conjugates and their cytotoxic effects. Immortal cell lines offer various benefits, for instance they are easy to handle, cost-effective and provide consistent sample and reproducible results. Nevertheless, cell lines also present the disadvantage that after a period of continuous growth, cell characteristics can change and dedifferentiate in culture. The serial passaging can cause genotypic and phenotypic variations and the state of confluency can also affect gene expression pattern in some cell lines. Due to this, the usage of internal standards during the evaluation of new potential candidates might be necessary to ensure comparability with previous results. The cytostatic effect of the novel GnRH-III bioconjugates was determined on HT-29 human colon cancer and MCF-7 human breast cancer cell lines by alamarBlue® assay. For a better comparison, the well-studied bioconjugates GnRH-III–[^8Lys(Dau=Aoa)] (K1) and GnRH-III–[^4Lys(Bu), ^8Lys(Dau=Aoa)] (K2) were used as positive controls and internal standards. The corresponding IC50 values were calculated by using nonlinear regression (sigmoidal dose response) (Figure 3, Table 2). Unfortunately, the D-Trp containing compounds 3 and 6 started to precipitate in both cell culture media at higher concentrations limiting the concentration down to a maximum of 10 µM. This effect could not be prevented by using DMSO instead of ddH2O for the preparation of the stock solutions. Unfortunately, the lower concentration range with a maximum of 10 µM was not sufficient to achieve the dose-response. […] Nevertheless, the replacement of ^6Asp by D-Asp, D-Glu or D-Trp led to a decreased cytostatic effect on the estimated cancer cell lines.
(§2) MCF-7 human breast adenocarcinoma cells were cultured in Dulbecco’s Modified Eagle Medium (DMEM, Lonza, Basel, Switzerland), supplemented with 10% (v/v) fetal bovine serum (FBS, Lonza), L-glutamine (2 mM, Lonza), non-essential amino acids (NEAA, Sigma-Aldrich Kft), sodium pyruvate (1 mM, Lonza) and penicillin-streptomycine (Lonza). […]
(§3) Cells were seeded to 96-well plates (Sarstedt, Nümbrecht, Germany, 5 × 10^3 cells/well) one day prior to the treatment in complete cell medium. […] Fluorescence was detected using Synergy H4 multi-mode microplate reader (BioTek, Winooski, VT, USA), excitation and emission wavelengths were set to 570 and 620 nm, respectively. Cytostasis was measured using 4 parallels, each experiment was repeated twice. Cytostatic effect (and IC50 values) were calculated by using nonlinear regression (sigmoidal dose response) with Origin Pro8 (OriginLab Corp., Northampton, MA, USA.).

[3] = tested on: HT-29 human colon cancer cell line; experiment: In vitro cytostatic effect, alamarBlue assay, HT-29; assay type: cell-based; details: HT-29, 10 µM
From the text: as §1, §2, §3

GnRH-RI [4] = molecular target: T1, GnRH-RI (Homo sapiens, UniProt P30968); design: human prostate cancer cells were obtained from a patient at the time of initial surgical treatment; from tissue; host or cells: human prostate cancer specimen from a patient (surgery); membrane homogenate; method as in PMID 22967796, PMID 25908176; details: human prostate cancer tissue; ref [29],[50]; read-out: IC50 prostate cancer (reported values); cited from earlier work
T1 sequence (P30968 1-328): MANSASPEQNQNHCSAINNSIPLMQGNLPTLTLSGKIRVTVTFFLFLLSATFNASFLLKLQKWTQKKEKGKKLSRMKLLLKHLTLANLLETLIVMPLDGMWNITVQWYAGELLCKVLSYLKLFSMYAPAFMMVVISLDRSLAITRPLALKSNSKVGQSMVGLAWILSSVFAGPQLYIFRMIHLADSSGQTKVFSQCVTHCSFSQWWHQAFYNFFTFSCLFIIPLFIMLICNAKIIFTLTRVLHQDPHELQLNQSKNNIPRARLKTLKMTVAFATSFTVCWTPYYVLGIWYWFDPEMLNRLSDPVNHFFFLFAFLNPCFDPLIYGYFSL

GnRH-RI [5] = molecular target: T1, GnRH-RI; design: method as in PMID 22967796, PMID 25908176; details: human pituitary tissue; ref [29],[50]; read-out: IC50 pituitary (reported values); cited from earlier work
[6] = design: method as in PMID 20953647, PMID 21668011; details: 90% human serum, 37 °C; ref [26],[38]; cited from earlier work
trypsin = tested on: trypsin; design: method as in PMID 20953647, PMID 21668011; details: 37 °C; ref [26],[38]; cited from earlier work

Compound: somatostatin-14
- displacement of [125I]-triptorelin (GnRH-receptor): could not inhibit the receptor binding

Compound: bombesin
- displacement of [125I]-triptorelin (GnRH-receptor): could not inhibit the receptor binding

Compound: CCCC(=O)NCCCC[C@H](NC(=O)[C@H](Cc1c[nH]c2ccccc12)NC(=O)[C@H](Cc1c[nH]cn1)NC(=O)[C@@H]1CCC(=O)N1)C(=O)N[C@@H](Cc1c[nH]cn1)C(=O)N[C@H](Cc1c[nH]c2ccccc12)C(=O)N[C@@H](Cc1c[nH]c2ccccc12)C(=O)N[C@@H](CCCCNC(=O)CON=C(C)[C@]1(O)Cc2c(O)c3c(c(O)c2[C@@H](O[C@H]2C[C@H](N)[C@H](O)[C@H](C)O2)C1)C(=O)c1c(OC)cccc1C3=O)C(=O)N1CCC[C@H]1C(=O)NCC(N)=O [compound 6, GnRH-III–[^4Lys(Bu), ^6D-Tpr, ^8Lys(Dau=Aoa)]] ([pGlu]HWK(Butyryl)H[dW]WK(Daunorubicin(13-NOCH2CO))PG-NH2)
- incubation time after which the smallest Dau-containing metabolite H-Lys(Dau=Aoa)-OH was detected [1]: 2 h
- cell viability at the highest concentration [2]: 53%
- cell viability at the highest concentration [3]: 55%

Compound: COc1cccc2c1C(=O)c1c(O)c3c(c(O)c1C2=O)C[C@@](O)(C(C)=NOCC(=O)NCCCC[C@H](NC(=O)[C@H](Cc1c[nH]c2ccccc12)NC(=O)[C@@H](Cc1c[nH]c2ccccc12)NC(=O)[C@H](Cc1c[nH]cn1)NC(=O)[C@H](CO)NC(=O)[C@H](Cc1c[nH]c2ccccc12)NC(=O)[C@H](Cc1c[nH]cn1)NC(=O)[C@@H]1CCC(=O)N1)C(=O)N1CCC[C@H]1C(=O)NCC(N)=O)C[C@@H]3O[C@H]1C[C@H](N)[C@H](O)[C@H](C)O1 [compound 3, [6D-Trp, 8Lys(Dau=Aoa)]] ([pGlu]HWSH[dW]WK(Daunorubicin(13-NOCH2CO))PG-NH2)
- incubation time after which the smallest Dau-containing metabolite H-Lys(Dau=Aoa)-OH was detected [1]: 4 h
- cell viability at the highest concentration [2]: 69%
- cell viability at the highest concentration [3]: 58%

Compound: GnRH-II–[D-Lys^6(Dau=Aoa)] (QHWSHKWYPG; N-terminal pyroglutamate (from Gln1); D-Lys at position 6, with daunorubicin oxime-linked through aminooxyacetyl on its epsilon-amine (Dau=Aoa); C-terminal amide; Decapeptide limits by convention (mat) [earlier reported daunorubicin–GnRH-II conjugate]
- pIC50 (GnRH-RI [4]): 8.68
- pIC50 (GnRH-RI [5]): 8.38

Compound: GnRH-III–[^4Lys(Ac), ^8Lys(Dau=Aoa)]
- time stable in human serum [6]: at least 24 h
- time stable in trypsin (trypsin): at least 24 h

Compound: cetrorelix
- displacement of [125I]-triptorelin (GnRH-receptor): displaced [^125I]-triptorelin completely

Compound: buserelin
- displacement of [125I]-triptorelin (GnRH-receptor): displaced [^125I]-triptorelin completely
